Data reported in the Kinase Knowledgebase extract (Sharma et al. 2016).

Biological target: ROCK2 (human) (UniProt O75116)
Assay: Inhibition of ROCK2 Kinase Activity

ROCK2 (human), sequence (O75116 whole entry, looked up): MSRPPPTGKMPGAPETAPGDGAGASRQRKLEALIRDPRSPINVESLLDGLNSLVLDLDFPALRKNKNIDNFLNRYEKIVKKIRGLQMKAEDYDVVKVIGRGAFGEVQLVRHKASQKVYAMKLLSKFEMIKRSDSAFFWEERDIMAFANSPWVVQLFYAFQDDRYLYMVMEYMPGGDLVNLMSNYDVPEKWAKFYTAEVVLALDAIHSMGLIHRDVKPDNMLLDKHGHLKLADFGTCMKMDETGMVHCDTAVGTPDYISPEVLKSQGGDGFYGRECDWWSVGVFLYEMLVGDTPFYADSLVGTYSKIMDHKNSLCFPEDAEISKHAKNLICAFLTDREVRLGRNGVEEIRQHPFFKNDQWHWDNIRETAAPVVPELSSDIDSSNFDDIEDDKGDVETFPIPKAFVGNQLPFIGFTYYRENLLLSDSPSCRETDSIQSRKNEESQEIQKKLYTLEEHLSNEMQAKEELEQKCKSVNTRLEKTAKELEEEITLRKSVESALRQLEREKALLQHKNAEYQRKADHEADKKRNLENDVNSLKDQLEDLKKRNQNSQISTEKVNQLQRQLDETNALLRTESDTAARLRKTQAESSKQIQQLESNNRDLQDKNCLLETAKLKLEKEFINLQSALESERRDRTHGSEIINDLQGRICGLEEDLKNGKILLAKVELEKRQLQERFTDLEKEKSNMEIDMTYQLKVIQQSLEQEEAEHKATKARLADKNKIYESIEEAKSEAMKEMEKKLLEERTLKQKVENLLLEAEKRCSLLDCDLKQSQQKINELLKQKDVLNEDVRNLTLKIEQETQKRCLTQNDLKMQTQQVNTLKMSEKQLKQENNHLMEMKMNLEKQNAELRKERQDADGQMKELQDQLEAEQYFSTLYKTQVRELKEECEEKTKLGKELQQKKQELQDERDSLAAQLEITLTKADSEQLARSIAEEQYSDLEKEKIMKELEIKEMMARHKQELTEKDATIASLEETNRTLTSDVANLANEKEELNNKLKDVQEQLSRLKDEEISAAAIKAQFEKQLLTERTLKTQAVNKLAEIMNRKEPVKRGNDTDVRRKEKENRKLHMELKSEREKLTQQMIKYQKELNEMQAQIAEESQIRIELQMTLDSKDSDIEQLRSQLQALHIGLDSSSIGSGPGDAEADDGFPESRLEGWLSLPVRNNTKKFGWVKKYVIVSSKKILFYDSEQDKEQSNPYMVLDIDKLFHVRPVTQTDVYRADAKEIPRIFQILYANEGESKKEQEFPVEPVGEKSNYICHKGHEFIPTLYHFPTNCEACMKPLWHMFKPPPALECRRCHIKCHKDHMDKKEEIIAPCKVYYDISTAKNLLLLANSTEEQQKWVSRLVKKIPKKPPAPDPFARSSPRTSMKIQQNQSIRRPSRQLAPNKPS

| SMILES | IC50 [µM] |
| --- | --- |
| NC(CNC(=O)C1CCCC1)c1ccc(C(=O)Nc2ccncc2)cc1 (stereo unspecified) | 0.5 to 5 |
| CONC(=O)CC(N)c1ccc(C(=O)Nc2ccncc2)cc1 (stereo unspecified) | 0.05 to 0.5 |
| NC(CC(=O)NCc1cccc(Cl)c1Cl)c1ccc(C(=O)Nc2ccncc2)cc1 (stereo unspecified) | 0.05 to 0.5 |
| CN(CC(N)c1ccc(C(=O)Nc2ccncc2)cc1)C(=O)C1CCOc2ccc(F)cc21 (stereo unspecified) | 0.5 to 5 |
| CN(CC(N)c1ccc(C(=O)Nc2ccncc2)cc1)C(=O)Cc1cccc(F)c1 (stereo unspecified) | 0.5 to 5 |
| NC(CNC(=O)C1CCCCc2ccc(F)cc21)c1ccc(C(=O)Nc2ccncc2)cc1 (stereo unspecified) | 0.05 to 0.5 |
| CN(CC(N)c1ccc(C(=O)Nc2ccncc2)cc1)C(=O)Cc1cc(F)ccc1F (stereo unspecified) | 0.5 to 5 |
| NC(c1ccc(C(=O)Nc2ccncc2)cc1)C1CCCN1C(=O)C1CCCc2sccc21 (stereo unspecified) | 0.05 to 0.5 |
| NC(CNC(=O)C1(c2ccc(F)cc2Cl)CC1)c1ccc(C(=O)Nc2ccncc2)cc1 (stereo unspecified) | 0.05 to 0.5 |
| COc1ccc(CNC(=O)CC(N)c2ccc(C(=O)Nc3ccncc3)cc2)cc1 (stereo unspecified) | 0.05 to 0.5 |
| NC(CNC(=O)c1cnccn1)c1ccc(C(=O)Nc2ccncc2)cc1 (stereo unspecified) | 0.5 to 5 |
| CCOC(=O)CCNC(=O)NCC(N)c1ccc(C(=O)Nc2ccncc2)cc1 (stereo unspecified) | 0.5 to 5 |
| COc1ccc(CC(=O)N(C)CC(N)c2ccc(C(=O)Nc3ccncc3)cc2)c(OC)c1OC (stereo unspecified) | 5 to 50 |
| CC(C)C(C(=O)N(C)CC(N)c1ccc(C(=O)Nc2ccncc2)cc1)c1ccc(Cl)cc1 (stereo unspecified) | 0.5 to 5 |
| NC(CNC(=O)CC1C=CCC1)c1ccc(C(=O)Nc2ccncc2)cc1 (stereo unspecified) | 0.05 to 0.5 |
| NC(CNC(=O)Nc1ccccc1F)c1ccc(C(=O)Nc2ccncc2)cc1 (stereo unspecified) | 0.05 to 0.5 |
| CC(NC(=O)CC(N)c1ccc(C(=O)Nc2ccncc2)cc1)c1ccccc1 (stereo unspecified) | 0.05 to 0.5 |
| CC(C)(C(=O)NC[C@H](N)c1ccc(C(=O)Nc2ccncc2)cc1)c1ccc(Cl)cc1 | 0.5 to 5 |
| NC(CC(=O)NCCc1c(Cl)cccc1Cl)c1ccc(C(=O)Nc2ccncc2)cc1 (stereo unspecified) | 0.05 to 0.5 |
| NC(c1ccc(C(=O)Nc2ccncc2)cc1)C1CCCN1C(=O)Cc1ccc(F)cc1Cl (stereo unspecified) | 0.5 to 5 |
| COc1ccc(NC(=O)NCC(N)c2ccc(C(=O)Nc3ccncc3)cc2)cc1 (stereo unspecified) | 0.05 to 0.5 |
| COc1ccc(CNC(=O)CC(N)c2ccc(C(=O)Nc3ccncc3)cc2)c(OC)c1 (stereo unspecified) | 0.05 to 0.5 |
| COc1cc(CCNC(=O)CC(N)c2ccc(C(=O)Nc3ccncc3)cc2)cc(OC)c1 (stereo unspecified) | 0.05 to 0.5 |
| NC(CNC(=O)c1ccc(-c2ccccc2)cc1)c1ccc(C(=O)Nc2ccncc2)cc1 (stereo unspecified) | 0.5 to 5 |
| NC(CNC(=O)C1(c2ccccc2)CC1)c1ccc(C(=O)Nc2ccncc2)cc1 (stereo unspecified) | 0.5 to 5 |
| NC(CC(=O)NCCc1ccccc1Cl)c1ccc(C(=O)Nc2ccncc2)cc1 (stereo unspecified) | 0.05 to 0.5 |

| SMILES | IC50 [µM] |
| --- | --- |
| CC(C)(C(=O)NC[C@@H](N)c1ccc(C(=O)Nc2ccncc2)cc1)c1ccc(Cl)cc1 | 0.05 to 0.5 |
| NC(CNC(=O)Cc1csc(Nc2ccccc2)n1)c1ccc(C(=O)Nc2ccncc2)cc1 (stereo unspecified) | 0.5 to 5 |
| COc1ccc(CNC(=O)NCC(N)c2ccc(C(=O)Nc3ccncc3)cc2)cc1 (stereo unspecified) | 0.05 to 0.5 |
| NC(CC(=O)NCc1ccc([N+](=O)[O-])cc1)c1ccc(C(=O)Nc2ccncc2)cc1 (stereo unspecified) | 0.05 to 0.5 |
| COc1ccc(C(=O)NCC(N)c2ccc(C(=O)Nc3ccncc3)cc2)cc1 (stereo unspecified) | 0.5 to 5 |
| COc1ccc(CC(=O)N2CCCC2C(N)c2ccc(C(=O)Nc3ccncc3)cc2)c(OC)c1 (stereo unspecified) | 0.5 to 5 |
| COc1ccc(C(NC(=O)CC(N)c2ccc(C(=O)Nc3ccncc3)cc2)c2ccc(OC)cc2)cc1 (stereo unspecified) | 0.05 to 0.5 |
| NC(CC(=O)NC(c1ccccc1)c1ccccc1)c1ccc(C(=O)Nc2ccncc2)cc1 (stereo unspecified) | 0.05 to 0.5 |
| Cc1ccccc1CNC(=O)NCC(N)c1ccc(C(=O)Nc2ccncc2)cc1 (stereo unspecified) | 0.05 to 0.5 |
| NC(CNC(=S)Nc1cccc2ccccc12)c1ccc(C(=O)Nc2ccncc2)cc1 (stereo unspecified) | 0.05 to 0.5 |
| CN(CC(N)c1ccc(C(=O)Nc2ccncc2)cc1)C(=O)C1CCCc2sccc21 (stereo unspecified) | 0.5 to 5 |
| NC(CNC(=O)C1CCC1)c1ccc(C(=O)Nc2ccncc2)cc1 (stereo unspecified) | 0.5 to 5 |
| NC(c1ccc(C(=O)Nc2ccncc2)cc1)C1CCCN1C(=O)C1(c2ccc(F)c(Cl)c2)CC1 (stereo unspecified) | 0.5 to 5 |
| NC(c1ccc(C(=O)Nc2ccncc2)cc1)C1CCCN1C(=O)Cc1csc2ccccc12 (stereo unspecified) | 0.05 to 0.5 |
| CN(CC(N)c1ccc(C(=O)Nc2ccncc2)cc1)C(=O)C(C)(C)c1ccsc1 (stereo unspecified) | 0.5 to 5 |
| CN(CC(N)c1ccc(C(=O)Nc2ccncc2)cc1)C(=O)C(c1ccccc1)C1CCCC1 (stereo unspecified) | 5 to 50 |
| NC(CC(=O)NCCN1CCOCC1)c1ccc(C(=O)Nc2ccncc2)cc1 (stereo unspecified) | 0.05 to 0.5 |
| NC(c1ccc(C(=O)Nc2ccncc2)cc1)C1CCCN1C(=O)Cc1csc(-c2ccccc2)n1 (stereo unspecified) | 0.5 to 5 |
| CN(CC(N)c1ccc(C(=O)Nc2ccncc2)cc1)C(=O)C(C)(C)c1ccc(F)cc1 (stereo unspecified) | 0.5 to 5 |
| COc1ccccc1CC(=O)N(C)CC(N)c1ccc(C(=O)Nc2ccncc2)cc1 (stereo unspecified) | 0.5 to 5 |
| CC(C)(C)ON=Cc1ccc(C(=O)NCC(N)c2ccc(C(=O)Nc3ccncc3)cc2)cc1 (stereo unspecified) | 0.5 to 5 |
| CS(=O)(=O)NCCNC(=O)CC(N)c1ccc(C(=O)Nc2ccncc2)cc1 (stereo unspecified) | 0.05 to 0.5 |
| CN(CC(N)c1ccc(C(=O)Nc2ccncc2)cc1)C(=O)C1(c2ccc(F)c(Cl)c2)CC1 (stereo unspecified) | 0.5 to 5 |
| CN(CC(N)c1ccc(C(=O)Nc2ccncc2)cc1)C(=O)Cc1ccc(Cl)cc1 (stereo unspecified) | 0.5 to 5 |
| N#CCC(=O)NCC(N)c1ccc(C(=O)Nc2ccncc2)cc1 (stereo unspecified) | 0.05 to 0.5 |
